# Test results taken from patent publication USRE39591E1, “6-O-substituted ketolides having antibacterial activity” (Abbott Laboratories, priority 1996, dated 2007).
# Test system: up to 32 different microorganisms
# Test: in vitro antibacterial activity (MIC), agar dilution on Brain Heart Infusion (BHI) agar with Steers replicator
# Format: cell-based
# Conditions: unit assumed
# Procedure, shortened: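 Agar dilution, 12 plates/compound; inoc 1:100 (1:10 Micrococcus, Streptococcus); 35°-37° C, 20–24 h. Erythromycin A reference plate plus drug-free growth controls at start and end. Endpoint = no growth/slight haze/sparse colonies.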
# [1] = Candida albicans CCH 442 (code TT)
# [2] = Enterococcus faecism ATCC 8043 (code II)
# [3] = Escherichia coli DC-2 (code SS)
# [4] = Escherichia coli JUHL (code QQ)
# [5] = Micrococcus luteus ATCC 4698 (code PP)
# [6] = Nocardia Asteroides ATCC9970 (code VV)
# [7] = Staphylococcus aureus 1775 (code GG)
# [8] = Staphylococcus aureus A5177 (code BB)
# [9] = Staphylococcus aureus A-5278 (code CC)
# [10] = Staphylococcus aureus ATCC 6538P (code AA)
# [11] = Staphylococcus aureus CMX 553 (code FF)
# [12] = Staphylococcus aureus CMX 642A (code DD)
# [13] = Staphylococcus aureus NCTC10649M (code EE)
# [14] = Staphylococcus epidermidis 3519 (code HH)
# [15] = Streptococcus agalactiae CMX 508 (code KK)
# [16] = Streptococcus pyogenes 930 (code MM)
# [17] = Streptococcus pyogenes EES61 (code LL)
# [18] = Streptococcus pyogenes PIU 2548 (code NN)
smiles,measurement,setting,value
"CC[C@H]1OC(=O)[C@H](C)C(=O)[C@H](C)[C@@H](O[C@@H]2O[C@H](C)C[C@H](N(C)C)[C@H]2O)[C@@](C)(OCCNOCc2ccc([N+](=O)[O-])cc2)C[C@@H](C)C(=O)[C@H](C)[C@H]2NC(=O)O[C@@]21C [Example 238, Compound of Formula (IX): L is CO, T is NH, R is —CH2CH2NHOCH2(4-NO2)-phenyl]",MIC,organism code AA,0.2 µg/mL
same,MIC,organism code BB,0.2 µg/mL
same,MIC,organism code CC,> 100 µg/mL
same,MIC,organism code DD,0.39 µg/mL
same,MIC,organism code EE,0.39 µg/mL
same,MIC,organism code FF,0.39 µg/mL
same,MIC,organism code GG,> 100 µg/mL
same,MIC,organism code HH,0.39 µg/mL
same,MIC,organism code II,0.05 µg/mL
same,MIC,organism code JJ,0.02 µg/mL
same,MIC,organism code KK,0.02 µg/mL
same,MIC,organism code LL,0.02 µg/mL
same,MIC,organism code MM,> 100 µg/mL
same,MIC,organism code NN,0.2 µg/mL
same,MIC,organism code OO,0.05 µg/mL
same,MIC,organism code PP,0.2 µg/mL
same,MIC,organism code QQ,100 µg/mL
same,MIC,organism code RR,0.39 µg/mL
same,MIC,organism code SS,> 100 µg/mL
same,MIC,organism code TT,> 100 µg/mL
same,MIC,organism code UU,0.2 µg/mL
same,MIC,organism code VV,0.1 µg/mL
same,MIC,organism code WW,8 µg/mL
same,MIC,organism code XX,0.03 µg/mL
same,MIC,organism code YY,0.03 µg/mL
same,MIC,organism code ZZ,> 64 µg/mL
same,MIC,organism code ZZA,0.25 µg/mL
"CCC1OC(=O)C(C)C(=O)C(C)C(OC2OC(C)CC(N(C)C)C2O)C(C)(OCC=Cc2cnc3ncccc3c2)CC(C)C(=O)C(C)C2NC(=O)OC12C (centres unmarked) [Example 202, R is —CH2CH═CH-(1,8-naphthyridin-3-yl)]",MIC,organism code XX,0.03 µg/mL
same,MIC,organism code YY,0.03 µg/mL
same,MIC,organism code ZZ,32 µg/mL
same,MIC,organism code ZZA,2 µg/mL
"CC[C@H]1OC(=O)[C@H](C)C(=O)[C@H](C)[C@@H](O[C@@H]2O[C@H](C)C[C@H](N(C)C)[C@H]2O)[C@@](C)(OCCN)C[C@@H](C)C(=O)[C@H](C)[C@@H](O)[C@]1(C)O [Example 8, Compound of Formula (VIII): X is O, R is —CH2CH2NH2]",MIC,[1],> 100 µg/mL
same,MIC,[2],6.2 µg/mL
same,MIC,[3],> 100 µg/mL
same,MIC,[4],> 100 µg/mL
same,MIC,Escherichia coli SS (code RR),6.2 µg/mL
same,MIC,[5],12.5 µg/mL
same,MIC,Micrococcus luteus ATCC 9341 (code OO),6.2 µg/mL
same,MIC,Mycobacterium smegmatis ATCC 114 (code UU),> 100 µg/mL
same,MIC,[6],12.5 µg/mL
same,MIC,[7],> 100 µg/mL
same,MIC,[8],25 µg/mL
same,MIC,[9],> 100 µg/mL
same,MIC,[10],25 µg/mL
same,MIC,[11],50 µg/mL
same,MIC,[12],6.2 µg/mL
same,MIC,[13],6.2 µg/mL
same,MIC,[14],100 µg/mL
same,MIC,[15],6.2 µg/mL
same,MIC,Streptococcus bovis A-5169 (code JJ),3.1 µg/mL
same,MIC,[16],> 100 µg/mL
same,MIC,[17],6.2 µg/mL
same,MIC,[18],12.5 µg/mL
"CC[C@H]1OC(=O)[C@H](C)C(=O)[C@H](C)[C@@H](O[C@@H]2O[C@H](C)C[C@H](N(C)C)[C@H]2O)[C@@](C)(OCC=Cc2cnc3ccccc3c2)C[C@@H](C)C(=O)[C@H](C)[C@@H](O)[C@]1(C)O [Example 18, Compound of Formula (VIII): X is O, R is —CH2CH═CH-(3-quinolyl)]",MIC,[1],> 100 µg/mL
same,MIC,[2],0.2 µg/mL
same,MIC,[3],> 100 µg/mL
same,MIC,[4],> 100 µg/mL
same,MIC,Escherichia coli SS (code RR),0.39 µg/mL
same,MIC,Haemophilis influenzae DILL AMP R (code WW),16 µg/mL
same,MIC,[5],0.2 µg/mL
same,MIC,[6],0.1 µg/mL
same,MIC,[7],> 100 µg/mL
same,MIC,[8],0.2 µg/mL
same,MIC,[9],> 100 µg/mL
same,MIC,[10],0.2 µg/mL
same,MIC,[11],0.2 µg/mL
same,MIC,[12],0.2 µg/mL
same,MIC,[13],0.2 µg/mL
same,MIC,[14],0.2 µg/mL
same,MIC,Streptococcus Pneumonia 5649 (code ZZA),0.25 µg/mL
same,MIC,Streptococcus Pneumonia 5979 (code ZZ),128 µg/mL
same,MIC,Streptococcus Pneumonia ATCC6303 (code XX),0.03 µg/mL
same,MIC,[15],0.2 µg/mL
same,MIC,[16],100 µg/mL
same,MIC,[17],0.2 µg/mL
same,MIC,[18],0.1 µg/mL
"CCC1OC(=O)C(C)C(=O)C(C)C(OC2OC(C)CC(N(C)C)C2O)C(C)(OCC=Cc2ccc3[nH]c4ccccc4c3c2)CC(C)C(=O)C(C)C2NC(=O)OC12C (centres unmarked) [Example 204, R is —CH2CH═CH-(3-carbazolyl)]",MIC,organism code AA,0.1 µg/mL
same,MIC,organism code BB,0.1 µg/mL
same,MIC,organism code CC,> 100 µg/mL
same,MIC,organism code DD,0.1 µg/mL
same,MIC,organism code EE,0.1 µg/mL
same,MIC,organism code FF,0.1 µg/mL
same,MIC,organism code GG,> 100 µg/mL
same,MIC,organism code HH,0.1 µg/mL
same,MIC,organism code II,0.05 µg/mL
same,MIC,organism code JJ,0.01 µg/mL
same,MIC,organism code KK,0.01 µg/mL
same,MIC,organism code LL,0.01 µg/mL
same,MIC,organism code MM,3.1 µg/mL
same,MIC,organism code NN,0.2 µg/mL
same,MIC,organism code OO,0.02 µg/mL
same,MIC,organism code PP,0.1 µg/mL
same,MIC,organism code QQ,> 100 µg/mL
same,MIC,organism code RR,0.78 µg/mL
same,MIC,organism code SS,> 100 µg/mL
same,MIC,organism code TT,> 100 µg/mL
same,MIC,organism code UU,0.78 µg/mL
same,MIC,organism code VV,0.1 µg/mL
same,MIC,organism code WW,4 µg/mL
same,MIC,organism code XX,0.06 µg/mL
same,MIC,organism code YY,0.06 µg/mL
same,MIC,organism code ZZ,8 µg/mL
same,MIC,organism code ZZA,0.5 µg/mL
"CCC1OC(=O)C(C)C(=O)C(C)C(OC2OC(C)CC(N(C)C)C2O)C(C)(OCC=Cc2cnc3ccc(C(N)=O)cc3c2)CC(C)C(=O)C(C)C2NC(=O)OC12C (centres unmarked) [Example 217, R is —CH2CH═CH-(6-aminocarbonyl-3-quinolyl)]",MIC,organism code AA,0.2 µg/mL
same,MIC,organism code BB,0.39 µg/mL
same,MIC,organism code CC,> 100 µg/mL
same,MIC,organism code DD,0.39 µg/mL
same,MIC,organism code FF,0.2 µg/mL
same,MIC,organism code GG,> 100 µg/mL
same,MIC,organism code HH,0.39 µg/mL
same,MIC,organism code II,0.2 µg/mL
same,MIC,organism code JJ,0.02 µg/mL
same,MIC,organism code KK,0.02 µg/mL
same,MIC,organism code LL,0.02 µg/mL
same,MIC,organism code MM,0.78 µg/mL
same,MIC,organism code NN,0.78 µg/mL
same,MIC,organism code OO,0.1 µg/mL
same,MIC,organism code PP,0.39 µg/mL
same,MIC,organism code QQ,50 µg/mL
same,MIC,organism code RR,0.39 µg/mL
same,MIC,organism code SS,> 100 µg/mL
same,MIC,organism code TT,> 100 µg/mL
same,MIC,organism code UU,12.5 µg/mL
same,MIC,organism code VV,0.78 µg/mL
same,MIC,organism code WW,2 µg/mL
same,MIC,organism code XX,0.03 µg/mL
same,MIC,organism code YY,0.03 µg/mL
same,MIC,organism code ZZ,2 µg/mL
same,MIC,organism code ZZA,2 µg/mL
"CCC1OC(=O)C(C)C(=O)C(C)C(OC2OC(C)CC(N(C)C)C2O)C(C)(OCC#CC=Cc2ccccc2)CC(C)C(=O)C(C)C2NC(=O)OC12C (centres unmarked) [Example 291, Compound of Formula (IX): L is CO, T is NH, R is —CH2C≡C-(2-phenylethenyl)]",MIC,organism code AA,0.05 µg/mL
same,MIC,organism code BB,0.05 µg/mL
same,MIC,organism code CC,> 100 µg/mL
same,MIC,organism code DD,0.05 µg/mL
same,MIC,organism code EE,0.05 µg/mL
same,MIC,organism code FF,0.05 µg/mL
same,MIC,organism code GG,> 100 µg/mL
same,MIC,organism code HH,0.05 µg/mL
same,MIC,organism code II,0.02 µg/mL
same,MIC,organism code JJ,≤ 0.005 µg/mL
same,MIC,organism code KK,≤ 0.005 µg/mL
same,MIC,organism code LL,≤ 0.005 µg/mL
same,MIC,organism code MM,3.1 µg/mL
same,MIC,organism code NN,0.1 µg/mL
same,MIC,organism code OO,≤ 0.005 µg/mL
same,MIC,organism code PP,0.05 µg/mL
same,MIC,organism code QQ,25 µg/mL
same,MIC,organism code RR,0.1 µg/mL
same,MIC,organism code SS,50 µg/mL
same,MIC,organism code TT,> 100 µg/mL
same,MIC,organism code UU,0.39 µg/mL
same,MIC,organism code VV,0.01 µg/mL
same,MIC,organism code WW,2 µg/mL
same,MIC,organism code XX,≤ 0.004 µg/mL
same,MIC,organism code YY,≤ 0.004 µg/mL
same,MIC,organism code ZZ,1 µg/mL
same,MIC,organism code ZZA,0.125 µg/mL
"CC[C@H]1OC(=O)[C@H](C)C(=O)[C@H](C)[C@@H](O[C@@H]2O[C@H](C)C[C@H](N(C)C)[C@H]2O)[C@@](C)(OCC#Cc2ccc3nc(C)ccc3c2)C[C@@H](C)C(=O)[C@H](C)[C@H]2NC(=O)O[C@@]21C [Example 255, Compound of Formula (IX): L is CO, T is NH, R is —CH2—C≡C-(2-methyl-6-quinolyl)]",MIC,organism code AA,0.1 µg/mL
same,MIC,organism code BB,0.2 µg/mL
same,MIC,organism code CC,> 100 µg/mL
same,MIC,organism code DD,0.2 µg/mL
same,MIC,organism code EE,0.2 µg/mL
same,MIC,organism code FF,0.2 µg/mL
same,MIC,organism code GG,> 100 µg/mL
same,MIC,organism code HH,0.1 µg/mL
same,MIC,organism code II,0.05 µg/mL
same,MIC,organism code JJ,0.02 µg/mL
same,MIC,organism code KK,0.02 µg/mL
same,MIC,organism code LL,0.02 µg/mL
same,MIC,organism code MM,50 µg/mL
same,MIC,organism code NN,0.2 µg/mL
same,MIC,organism code OO,0.05 µg/mL
same,MIC,organism code PP,0.2 µg/mL
same,MIC,organism code QQ,100 µg/mL
same,MIC,organism code RR,0.3 µg/mL
same,MIC,organism code SS,> 100 µg/mL
same,MIC,organism code TT,> 100 µg/mL
same,MIC,organism code UU,3.1 µg/mL
same,MIC,organism code VV,0.05 µg/mL
same,MIC,organism code XX,0.03 µg/mL
same,MIC,organism code YY,0.03 µg/mL
same,MIC,organism code ZZ,16 µg/mL
same,MIC,organism code ZZA,0.25 µg/mL
